# How the values were obtained:
# [1] = test system: amyloid plaques; assay: Autoradiography using postmortem brain section of patient with Alzheimer's disease (Example 7); format: binding, human (Alzheimer's disease patient); conditions: brain section (temporal lobe) of Alzheimer's disease patient; 0.37 MBq/100 μL, 1 hour
# Method: A postmortem autopsy brain section (temporal lobe) of a patient with Alzheimer's disease was incubated together with each of [^18F]E3, [^18F]D3, [^18F]E1, and [^18F]E2 (0.37 MBq/100 μL each) at room temperature for 1 hour. The resultant was washed with a 50 volume % ethanol aqueous solution (2 minutes×2) and water (2 minutes×2), and after drying, the section was contacted with BAS imaging plate (from Fujifilm Corporation) for 1.5 hours. The image of autoradiography was obtained using BAS5000 scanner system (from Fujifilm Corporation).
# A section adjacent to the brain section used was immunostained in the following manner.
# First, a paraffin-embedded brain section of the Alzheimer's disease patient (temporal lobe, 6 μm in thickness) was incubated with xylene (15 minutes×2), ethanol (1 minute×2), a 90 volume % ethanol aqueous solution (1 minute×2), and a 70 volume % ethanol aqueous solution (1 minute×1) in that order for complete deparaffinization, and then washed in water (2.5 minutes×2). Thereafter, the section was subjected to autoclave treatment for 15 minutes in 0.01 mol/L citrate buffer solution (pH 6.0). The resultant was incubated in PBS-Tween20 (5 minutes×2), and a mouse anti-Aβ1-42 primary monoclonal antibody (from Wako Pure Chemical Industries Ltd.) was then added thereto, which was then incubated at room temperature overnight. The resultant was incubated in PBS-Tween20 (2 minutes×3), and a biotin-goat anti-mouse IgG (from Funakoshi Co., Ltd.) was then added thereto, which was then incubated at room temperature for 1 hour. The resultant was incubated in PBS-Tween20 (5 minutes×3), and a streptavidin-peroxidase complex (from Funakoshi Co., Ltd.) was added thereto, which was then incubated at room temperature for 30 minutes. In addition, the resultant was incubated in PBS-Tween20 (2 minutes×3); 3,3′-diaminobenzidine was added thereto, which was then incubated at room temperature for 30 minutes; and after washing with water, the section was observed under a microscope to provide an immunostained image (FIG. 10).
# [2] = In vivo radioactivity distribution experiment (Example 8); conditions: ddY mice, tail vein, SD in parenthesis
# Method: Through the tail vein of ddY mice (male, 5 week-old) was injected each of a 10 volume % ethanol-containing saline solution of [^18F]E3 (45.4 kBq, 100 μL), a 10 volume % ethanol-containing saline solution of [^18F]D3 (38.2 kBq, 100 μL), a 10 volume % ethanol-containing saline solution of [^18F]E1 (45.1 kBq, 100 μL), and a 10 volume % ethanol-containing saline solution of [^18F]E2 (40.6 kBq, 100 μL). Five mice were used for each group and sacrificed 2, 10, 30, and 60 minutes after administration to remove major organs. The blood and organs were weighed and further measured for radioactivity using a γ counter. The amount of radioactivity per unit mass was measured in each organ to evaluate radioactivity distribution.
# [3] = test system: amyloid plaques in the brain; assay: Ex vivo autoradiography using Alzheimer's disease model mouse (Example 9); format: in vivo; conditions: Tg2576 mouse (24-month old) vs normal mouse; tail vein; 1 hour after administration
# Sequence of amyloid plaques in the brain (P05067 672-711 limits assumed): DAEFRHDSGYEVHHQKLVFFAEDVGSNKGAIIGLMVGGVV
# Method: To confirm whether the compound 2 has the performance capable of visualizing amyloid plaques in the brain, an image was taken by ex vivo autoradiography in a Tg2576 mouse as one of Alzheimer's disease model animals.
# [^18F]D3 (55.5 MBq (1.5 mCi)/200 μL) was administered to a Tg2576 mouse (24-month old, female) and a normal mouse (24-month old, female) through their tail vein. Each mouse was sacrificed 1 hour after administration, and the brain was removed, embedded in a carboxymethylcellulose solution, and frozen in a dry ice-hexane bath, followed by preparing frozen sections having a thickness of 30 μm using a cryostat (Leica). The resultant brain tissue sections were each placed on an imaging plate (Model BAS-SR, from Fujifilm Corporation) for 30 minutes for exposure, and the respective autoradiographs were obtained using an image analyzer (Bio Imaging Analyzer Model BAS5000, from Fujifilm Corporation). The same sections were each stained with thioflavin S ([…]), washed, and observed under a fluorescent microscope.
# Sequence of amyloid plaques (P05067 672-711 limits assumed): as above
substance,measurement,setting,value
"4-(6-(2-[^18F]Fluoroethoxy)quinoxalin-2-yl)-N,N-dimethylaniline [[^18F]D3]",visualization of gray matter / amyloid plaques by autoradiography,[1],amyloid plaques were visualized
same,"Radioactivity Amount, Blood",[2]; 2 min. after,2.66 (0.50) % injected dose/g
same,"Radioactivity Amount, Blood",[2]; 10 min. after,2.29 (0.25) % injected dose/g
same,"Radioactivity Amount, Blood",[2]; 30 min. after,2.98 (0.29) % injected dose/g
same,"Radioactivity Amount, Blood",[2]; 60 min. after,3.26 (0.37) % injected dose/g
same,"Radioactivity Amount, Bone",[2]; 2 min. after,2.65 (0.61) % injected dose/g
same,"Radioactivity Amount, Bone",[2]; 10 min. after,2.75 (0.36) % injected dose/g
same,"Radioactivity Amount, Bone",[2]; 30 min. after,2.82 (0.78) % injected dose/g
same,"Radioactivity Amount, Bone",[2]; 60 min. after,2.77 (1.27) % injected dose/g
same,"Radioactivity Amount, Brain",[2]; 2 min. after,5.67 (0.48) % injected dose/g
same,"Radioactivity Amount, Brain",[2]; 10 min. after,6.39 (0.51) % injected dose/g
same,"Radioactivity Amount, Brain",[2]; 30 min. after,3.73 (0.50) % injected dose/g
same,"Radioactivity Amount, Brain",[2]; 60 min. after,2.61 (0.37) % injected dose/g
same,"Radioactivity Amount, Heart",[2]; 2 min. after,8.50 (1.40) % injected dose/g
same,"Radioactivity Amount, Heart",[2]; 10 min. after,4.19 (0.47) % injected dose/g
same,"Radioactivity Amount, Heart",[2]; 30 min. after,3.29 (0.68) % injected dose/g
same,"Radioactivity Amount, Heart",[2]; 60 min. after,3.74 (0.72) % injected dose/g
same,"Radioactivity Amount, Intestine",[2]; 2 min. after,2.56 (0.10) % injected dose/g
same,"Radioactivity Amount, Intestine",[2]; 10 min. after,5.27 (0.27) % injected dose/g
same,"Radioactivity Amount, Intestine",[2]; 30 min. after,9.82 (1.43) % injected dose/g
same,"Radioactivity Amount, Intestine",[2]; 60 min. after,12.3 (0.79) % injected dose/g
same,"Radioactivity Amount, Kidney",[2]; 2 min. after,10.7 (0.96) % injected dose/g
same,"Radioactivity Amount, Kidney",[2]; 10 min. after,6.66 (0.45) % injected dose/g
same,"Radioactivity Amount, Kidney",[2]; 30 min. after,4.19 (0.78) % injected dose/g
same,"Radioactivity Amount, Kidney",[2]; 60 min. after,3.30 (0.39) % injected dose/g
same,"Radioactivity Amount, Liver",[2]; 2 min. after,10.3 (1.00) % injected dose/g
same,"Radioactivity Amount, Liver",[2]; 10 min. after,9.83 (0.22) % injected dose/g
same,"Radioactivity Amount, Liver",[2]; 30 min. after,6.91 (0.81) % injected dose/g
same,"Radioactivity Amount, Liver",[2]; 60 min. after,6.65 (0.90) % injected dose/g
same,"Radioactivity Amount, Lung",[2]; 2 min. after,8.94 (1.76) % injected dose/g
same,"Radioactivity Amount, Lung",[2]; 10 min. after,4.59 (1.07) % injected dose/g
same,"Radioactivity Amount, Lung",[2]; 30 min. after,3.51 (0.44) % injected dose/g
same,"Radioactivity Amount, Lung",[2]; 60 min. after,3.39 (0.14) % injected dose/g
same,"Radioactivity Amount, Pancreas",[2]; 2 min. after,6.55 (0.63) % injected dose/g
same,"Radioactivity Amount, Pancreas",[2]; 10 min. after,4.74 (0.42) % injected dose/g
same,"Radioactivity Amount, Pancreas",[2]; 30 min. after,2.73 (0.50) % injected dose/g
same,"Radioactivity Amount, Pancreas",[2]; 60 min. after,2.74 (0.19) % injected dose/g
same,"Radioactivity Amount, Spleen",[2]; 2 min. after,2.86 (0.66) % injected dose/g
same,"Radioactivity Amount, Spleen",[2]; 10 min. after,4.09 (0.33) % injected dose/g
same,"Radioactivity Amount, Spleen",[2]; 30 min. after,2.66 (0.57) % injected dose/g
same,"Radioactivity Amount, Spleen",[2]; 60 min. after,3.07 (0.68) % injected dose/g
same,"Radioactivity Amount, Stomach*",[2]; 2 min. after,1.09 (0.05) % injected dose per organ
same,"Radioactivity Amount, Stomach*",[2]; 10 min. after,1.64 (0.28) % injected dose per organ
same,"Radioactivity Amount, Stomach*",[2]; 30 min. after,1.98 (0.47) % injected dose per organ
same,"Radioactivity Amount, Stomach*",[2]; 60 min. after,2.06 (0.46) % injected dose per organ
same,"visualization of amyloid plaques in the brain, ex vivo autoradiography",[3],could visualize amyloid plaques in the brain
